Assay results as given in patent US11098061B2 (Celgene CAR LLC, priority 2013, dated 2021).

Tests used:
[1] = molecular target: T1, MK2 (Homo sapiens (Human), UniProt P49137); experiment: MK2 cellular assay (Hsp27 phosphorylation in Thp-1 cells); assay type: cell-based; conditions: differentiated Thp-1 cells, compound 1 hour, 50 ng/ml LPS 15 minutes, phosphorylation of Hsp27; read-out: MK2EC50
Experimental: Compounds were assayed in Thp-1 human acute monocytic leukemia cells to measure inhibition of MK2 activity. Thp-1 were grown in suspension in T225 flasks. Two days prior to assay, Thp-1 cells were spun down, counted and plated at 1×10^6 cells per well of a 12 well plate in complete media containing 10 ng/ml PMA (phorbol myristate acetate) to differentiate the cells. On day of assay, cells were washed with complete media, and compound was added to differentiated Thp-1 cells for 1 hour. Cells were washed again, and complete media containing 50 ng/ml LPS (lipopolysaccharide) was added. After 15 minutes, cells were washed once with PBS and lysed on ice with BioRad Bioplex lysis buffer. 20 μg total protein from lysates were loaded on gel and blots were probed for phosphorylation of the MK2 substrate Hsp27. Dose response inhibition of MK2 signaling in differentiated Thp-1 cells was used to determine the EC50 for compounds reported in Table A in the column entitled “MK2 EC50.”

[2] = molecular target: p38a activated, mitogen-activated protein kinase-activated protein kinase 2 (MAPKAP-K2 or MK-2) enzyme (Homo sapiens (Human), UniProt P49137); experiment: MK2 Omnia continuous-read kinase assay for compound potency; assay type: biochemical; conditions: [MK-2]=0.4 nM, [ATP]=1.0 mM, [ST3-Sox]=10 μM
Sequence of p38a activated, mitogen-activated protein kinase-activated protein kinase 2 (MAPKAP-K2 or MK-2) enzyme (P49137 whole entry): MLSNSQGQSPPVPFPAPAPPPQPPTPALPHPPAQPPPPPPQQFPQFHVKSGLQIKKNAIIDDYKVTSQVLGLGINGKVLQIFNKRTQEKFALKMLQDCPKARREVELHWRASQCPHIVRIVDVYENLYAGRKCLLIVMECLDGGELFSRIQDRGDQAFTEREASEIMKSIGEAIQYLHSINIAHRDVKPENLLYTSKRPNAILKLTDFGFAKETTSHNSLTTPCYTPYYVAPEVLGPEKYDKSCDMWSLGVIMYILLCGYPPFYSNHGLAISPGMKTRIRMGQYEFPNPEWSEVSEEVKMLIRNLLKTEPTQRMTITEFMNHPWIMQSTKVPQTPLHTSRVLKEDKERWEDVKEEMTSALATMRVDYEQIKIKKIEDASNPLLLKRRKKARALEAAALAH
Summary of the method: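 Continuous Omnia fluorescence read (λex360/λem485) every 71 s after starting with 0.4 nM MK-2, with 1.0 mM ATP (appKM 8-10 μM) and 10 μM ST3-Sox substrate.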

[3] = molecular target: T1, MK2; experiment: MK2 modification assessment by whole protein mass spectrometry; assay type: binding; conditions: intact MK2, 60 min, 10-fold excess of compound to protein
Summary of the method: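 MK2 treated with compound is analysed intact by MALDI-TOF after C4 cleanup in sinapinic acid matrix. Percent modification is the centroid mass shift against control MK2 divided by compound mass.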

T1 sequence (P49137 whole entry): as above

Compound	EC50 [1] [nM]	IC50 [2] [nM]	MK2 Mass Mod [3]
C=CC(=O)Nc1cc(Cl)cc2oc(-c3ccc4cc5n(c4c3)C3(CCC3)CNC5=O)nc12 [Compound V-62, N-(6-chloro-2-(1′-oxo-2′,3′-dihydro-1′H-spiro[cyclobutane-1,4′-pyrazino [1,2-a]indol]-7′-yl)benzo[d]oxazol-4-yl)acrylamide]	101 to 500	101 to 500	E (mass modification of ≥70%)
C=CC(=O)Nc1cccc2[nH]c(-c3ccc4cc5n(c4c3)C3(CCC3)CNC5=O)nc12 [Compound V-63, N-(2-(1′-oxo-2′,3′-dihydro-1′H-spiro[cyclobutane-1,4′-pyrazino [1,2-a]indol]-7′-yl)-1H-benzo[d]imidazol-4-yl)acrylamide]	< 100	< 100	E (mass modification of ≥70%)
C=CC(=O)Nc1cc(-c2cc3c(cn2)CCc2c-3[nH]c3c2C(=O)NCC3)ccc1N1CCN(C)CC1 [II-1, N-(2-(4-methylpiperazin-1-yl)-5-(7-oxo-6,7,8,9,10,11-hexahydro-5H-pyrido[3′,4′:4,5]pyrrolo[2,3-f]isoquinolin-2-yl)phenyl)acrylamide]	< 100	< 100	E (mass modification of ≥70%)
C=CC(=O)Nc1cc(-c2cc3c(cn2)CCc2c-3[nH]c3c2C(=O)NCC3)ccc1F [II-3, N-(2-fluoro-5-(7-oxo-6,7,8,9,10,11-hexahydro-5H-pyrido[3′,4′:4,5]pyrrolo[2,3-f]isoquinolin-2-yl)phenyl)acrylamide]	< 100	< 100	F (mass modification of 31-69%)
C=CC(=O)Nc1cc(-c2cc3c(cn2)CCc2c-3[nH]c3c2C(=O)NCC3)cnc1OC [II-4, N-(2-methoxy-5-(7-oxo-6,7,8,9,10,11-hexahydro-5H-pyrido[3′,4′:4,5]pyrrolo[2,3-f]isoquinolin-2-yl)pyridin-3-yl)acrylamide]	< 100	< 100	E (mass modification of ≥70%)
C=CC(=O)Nc1cc(-c2cc3c(cn2)CCc2c-3[nH]c3c2C(=O)NC2(CC2)C3)ccc1F [II-6, N-(2-fluoro-5-(7′-oxo-5′,6′,7′,8′,10′,11′-hexahydrospiro[cyclopropane-1,9′-pyrido[3′,4′:4,5]pyrrolo[2,3-f]isoquinolin]-2′-yl)phenyl)acrylamide]	< 100	< 100	E (mass modification of ≥70%)
C=CC(=O)N1CCOc2ncc(-c3cc4c(cn3)CCc3c-4[nH]c4c3C(=O)NC3(CC3)C4)cc21 [II-9, 2′-(1-acryloyl-2,3-dihydro-1H-pyrido[2,3-b][1,4]oxazin-7-yl)-5′,6′,10′,11′-tetrahydrospiro[cyclopropane-1,9′-pyrido[3′,4′:4,5]pyrrolo[2,3-f]isoquinolin]-7′(8′H)-one]	> 1000	< 100	E (mass modification of ≥70%)
C=CC(=O)Nc1cc(-c2cc3c(cn2)CCc2c-3[nH]c3c2C(=O)NCC3)ccc1OCCCN [II-10, N-(2-(3-aminopropoxy)-5-(7-ox-6,7,8,9,11-hexahydro-5H-pyrido[3′,4′:4,5]pyrrolo[2,3-f]isoquinolin-2-yl)phenyl)acrylamide]	501 to 999	< 100	E (mass modification of ≥70%)
C=CC(=O)Nc1cc(-c2ncc3c(n2)-c2[nH]c4c(c2CC3)C(=O)NCC4)cnc1OCCOC [II-13, N-(2-(2-methoxyethoxy)-5-(7-oxo-6,7,8,9,10,11-hexahydro-5H-pyrido[3′,4′:4,5]pyrrolo[3,2-h]quinazolin-2-yl)pyridin-3-yl)acrylamide]	101 to 500	< 100	E (mass modification of ≥70%)
C=CC(=O)Nc1cc(-c2cc3c(cn2)CCc2c-3[nH]c3c2C(=O)NCC3)ccc1OCCOC [II-16, N-(2-(2-methoxyethoxy)-5-(7-oxo-6,7,8,9,10,11-hexahydro-5H-pyrido[3′,4′:4,5]pyrrolo[2,3-f]isoquinolin-2-yl)phenyl)acrylamide]	< 100	< 100	E (mass modification of ≥70%)
C=CC(=O)Nc1cc(-c2cc3c(cn2)CCc2c-3[nH]c3c2C(=O)NCC3)cnc1N1CCN(C)CC1 [II-26, N-(2-(4-methylpiperazin-1-yl)-5-(7-oxo-6,7,8,9,10,11-hexahydro-SH-pyrido[3′,4′:4,5]pyrrolo[2,3-f]isoquinolin-2-yl)pyridin-3-yl)acrylamide]	101 to 500	< 100	E (mass modification of ≥70%)
C=CC(=O)Nc1cc(-c2cc3c(ccc4c5c([nH]c43)CCC5=O)cn2)ccc1N1CCN(C)CC1 [II-e-4, N-(2-(4-methylpiperazin-1-yl)-5-(7-oxo-7,8,9,10-tetrahydrocyclopenta[4,5]pyrrolo[2,3-f]isoquinolin-2-yl)phenyl)acrylamide]	< 100	< 100	E (mass modification of ≥70%)
C=CC(=O)N1CCOc2ccc(-c3cc4c(ccc5c6c([nH]c54)CCC6=O)cn3)cc21 [II-e-8, 2-(4-acryloyl-3,4-dihydro-2H-benzo[b][1,4]oxazin-6-yl)-8,9-dihydrocyclopenta[4,5]pyrrolo[2,3-f]isoquinolin-7(10H)-one]	> 1000	< 100	E (mass modification of ≥70%)
C=CC(=O)Nc1cc(-c2cc3c(ccc4c5c(n(C)c43)CCC5=O)cn2)ccc1N1CCN(C)CC1 [II-e-15, N-(5-(10-methyl-7-oxo-7,8,9,10-tetrahydrocyclopenta[4,5]pyrrolo[2,3-f]isoquinolin-2-yl)-2-(4-methylpiperazin-1-yl)phenyl)acrylamide]	101 to 500	< 100	E (mass modification of ≥70%)

More lines, now with the values ahead:

EC50 [1] [nM]	IC50 [2] [nM]	MK2 Mass Mod [3]	Compound
< 100	< 100	E (mass modification of ≥70%)	C=CC(=O)Nc1cc(C2CCN(C)CC2)cc2oc(-c3ccc4cc5n(c4c3)C3(CCC3)CNC5=O)nc12 [Compound V-61, N-(6-(1-methylpiperidin-4-yl)-2-(1′-oxo-2′,3′-dihydro-1′H-spiro[cyclobutane-1,4′-pyrazino [1,2-a]indol]-7′-yl)benzo[d]oxazol-4-yl)acrylamide]
< 100	< 100	E (mass modification of ≥70%)	C=CC(=O)Nc1cc(-c2cc3c(cn2)CCc2c-3[nH]c3c2C(=O)NCC3)ccc1OC [II-2, N-(2-methoxy-5-(7-oxo-6,7,8,9,10,11-hexahydro-5H-pyrido[3′,4′:4,5]pyrrolo[2,3-f]isoquinolin-2-yl)phenyl)acrylamide]
< 100	< 100	E (mass modification of ≥70%)	C=CC(=O)Nc1cc(-c2cc3c(cn2)CCc2c-3[nH]c3c2C(=O)NC2(CC2)C3)cnc1OC [II-5, N-(2-methoxy-5-(7′-oxo-5′,6′,7′,8′,10′,11′-hexahydrospiro[cyclopropane-1,9′-pyrido[3′,4′:4,5]pyrrolo[2,3-f]isoquinolin]-2′-yl)pyridin-3-yl)acrylamide]
< 100	< 100	E (mass modification of ≥70%)	C=CC(=O)Nc1cc(-c2cc3c(cn2)CCc2c-3[nH]c3c2C(=O)NC2(CC2)C3)cnc1OCCOC [II-8, N-(2-(2-methoxyethoxy)-5-(7′-oxo-5′,6′,7′,8′8′,1′,11′-hexahydrospiro[cyclopropane-1,9′-pyrido[3′,4′:4,5]pyrrolo[2,3-f]isoquinolin]-2′-yl)pyridin-3-yl)acrylamide]
501 to 999	< 100	E (mass modification of ≥70%)	C=CC(=O)N1CCOc2ccc(-c3cc4c(cn3)CCc3c-4[nH]c4c3C(=O)NC3(CC3)C4)cc21 [II-12, 2′-(4-acryloyl-3,4-dihydro-2H-benzo[b][1,4]oxazin-6-yl)-5′,6′,10′,11′-tetrahydrospiro[cyclopropane-1,9′-pyrido[3′,4′:4,5]pyrrolo[2,3-f]isoquinolin]-7′(8′H)-one]
< 100	< 100	E (mass modification of ≥70%)	C=CC(=O)Nc1cc(-c2ncc3c(n2)-c2[nH]c4c(c2CC3)C(=O)NCC4)ccc1OCCOC [II-15, N-(2-(2-methoxyethoxy)-5-(7-oxo-6,7,8,9,10,11-hexahydro-5H-pyrido[3′,4′:4,5]pyrrolo[3,2-h]quinazolin-2-yl)phenyl)acrylamide]
501 to 999	< 100	E (mass modification of ≥70%)	C=CC(=O)N1CC(C)Oc2ccc(-c3cc4c(ccc5c6c([nH]c54)CCC6=O)cn3)cc21 (stereo not drawn) [II-e-17, 2-(4-acryloyl-2-methyl-3,4-dihydro-2H-benzo[b][1,4]oxazin-6-yl)-8,9-dihydrocyclopenta[4,5]pyrrolo[2,3-f]isoquinolin-7(10H)-one]
101 to 500	< 100	E (mass modification of ≥70%)	C=CC(=O)Nc1cc(-c2cc3c(ccc4c5c([nH]c43)CCC5=O)cn2)ccc1Cl [II-e-20, N-(2-chloro-5-(7-oxo-7,8,9,10-tetrahydrocyclopenta[4,5]pyrrolo[2,3-f]isoquinolin-2-yl)phenyl)acrylamide]
